Assay results reported in PMC12931196, “Vm–MSI: a Vancomycin–Antimicrobial Peptide Conjugate Combating Resistant Bacteria and Broadening the Antimicrobial Spectrum” (Advanced Science, 2025).
Values after ≈ are worked out from the molar mass of the structure shown. Values joined by “and” are separate entries in the source; they are usually repeats but may differ in a detail not shown here. Identical values can stand only once.

Experiments:
13 bacterial strains = assay: GM of MIC from tested bacterial strains (Table S2); format: cell-based; details: 13 strains of Table S2; read-out: GM: geometric mean of MIC from tested bacterial strains
Description: The 2 fold broth microdilution method was performed following previously established protocols.^[ [65], [66] ^] A total of 29 strains of human pathogenic microorganisms (11 Gram‐positive and 18 Gram‐negative) were included in the assay. Standard strains were maintained in our laboratory, and clinical isolates were obtained from the Fourth Affiliated Hospital of Soochow University. […] Gradient dilutions of the drugs (vancomycin, AMPs, and vancomycin‐AMP conjugates) were prepared in 96‐well plates, with 50 µL of each drug solution added per well. For the vancomycin and AMP mixture, 25 µL of vancomycin was combined with 25 µL of AMP at the corresponding monomer gradient concentration, resulting in a total volume of 50 µL. […] Following incubation, bacterial growth was assessed by measuring absorbance at 600 nm. The MIC was defined as the lowest concentration at which no bacterial growth was detected.

S. aureus CMCC26003 [1] = assay: Antimicrobial resistance development assay; format: cell-based; details: S. aureus CMCC26003 cultured at sub‐MIC
VRSA 52 [2] = assay: Mouse skin infection model; format: in vivo, BALB/c mice
[3] = tested on: multidrug‐resistant A. baumannii; assay: Mouse lung infection model; format: in vivo, mice; details: single i.p. 5 mg kg^−1 at 0.5 h post‐infection; lung CFU after one day
Description: The experimental methods employed in this study were based on previously published literature.^[ [64] ^] 6–8 weeks old female mice weighing 18–20 g were selected for the study, and colonization was performed by administering 50 µL of a multidrug‐resistant A. baumannii strain (at a concentration of 1 × 10^7 CFU/mL) via tracheal intubation into the lungs of the mice for a duration of 0.5 h. After this period, an intraperitoneal injection of the drug at a dosage of 5 mg kg^−1 was administered. PBS served as a negative control, while ciprofloxacin was used as a positive control. After 24 h, the mice were euthanized, and their lung tissues were excised, homogenized, and diluted 10000 fold for colony counting. The lung tissue homogenate was then centrifuged to obtain the supernatant, which was further diluted 5 fold. The expression levels of inflammatory factors IL‐6 and TNF‐α in the supernatant were measured using an ELISA assay (ThermoFisher, US).

[4] = tested on: VRSA 52, E. coli ATCC25922, and MDR P. aeruginosa 5; assay: Crystalline violet biofilm inhibition and eradication assays; format: cell-based; details: 0.5-8 µM; three strains
Description: The mixture was incubated in a 96‐well plate for 48 h. Subsequent steps, including washing, fixation, staining, and OD measurement, were performed as described in the biofilm eradication assay.

[5] = tested on: E. coli ATCC25922 biofilms; details: 8 µM, 4 h, SYTO9/PI CLSM
S. aureus CMCC26003 [6] = assay: Bacterial killing kinetics; details: 4 µM, sampled 0-180 min
E. coli ATCC25922 = assay: Bacterial killing kinetics; details: 4 µM, sampled 0-180 min
[7] = tested on: S. aureus CMCC26003 persister cells; assay: Anti‐persister cells assay; details: 4 µM, 48 h, after 20× MIC ciprofloxacin for 8 h
[8] = tested on: biofilm‐resident bacteria, including VRSA, E. coli, and MDR P. aeruginosa; assay: Biofilm resident bacteria assay; details: 1-8 µM, 24 h
S. aureus CMCC26003 [9] = assay: microbe, parasite or virus in culture; details: Staphylococcus aureus, CMCC26003, 18 h
S. aureus ATCC29213 = assay: microbe, parasite or virus in culture; details: Staphylococcus aureus, ATCC29213, 18 h
MRSA ATCC43300 = assay: microbe, parasite or virus in culture; details: Staphylococcus aureus, 18 h
S. aureus 15772 = assay: microbe, parasite or virus in culture; details: Staphylococcus aureus, 15772, 18 h
S. aureus 15192 = assay: microbe, parasite or virus in culture; details: Staphylococcus aureus, 15192, 18 h
VRSA 11 = assay: microbe, parasite or virus in culture; details: Staphylococcus aureus, 18 h
C. perfringens ATCC13124 = assay: microbe, parasite or virus in culture; details: Clostridium perfringens, ATCC13124, 18 h
E. coli CMCC44102 = assay: microbe, parasite or virus in culture; details: Escherichia coli, CMCC44102, 18 h
A. baumannii ATCC19606 = assay: microbe, parasite or virus in culture; details: Acinetobacter baumannii, ATCC19606, 18 h
MDR A. baumannii 1 = assay: microbe, parasite or virus in culture; details: Acinetobacter baumannii, 18 h
K. pneumoniae 9883 = assay: microbe, parasite or virus in culture; details: Klebsiella pneumoniae, 9883, 18 h
MDR K. pneumoniae 3 = assay: microbe, parasite or virus in culture; details: Klebsiella pneumoniae, 18 h
P. aeruginosa ATCC27853 = assay: microbe, parasite or virus in culture; details: Pseudomonas aeruginosa, ATCC27853, 18 h
[10] = tested on: ompR, csgA, csgD, mlrA, and rcsB expression in E. coli ATCC25922; assay: qPCR analysis of biofilm‐related genes; details: 8 µM, 48 h static; qPCR ΔΔCt
VRSA 52 [11] = assay: Live/dead bacteria staining (PI/SYTO9, CLSM); details: 4 µM, 1 h

CN[C@H](CC(C)C)C(=O)N[C@H]1C(=O)N[C@@H](CC(N)=O)C(=O)N[C@H]2C(=O)N[C@H]3C(=O)N[C@H](C(=O)N[C@H](C(=O)O)c4cc(O)cc(O)c4-c4cc3ccc4O)[C@H](O)c3ccc(c(Cl)c3)Oc3cc2cc(c3O[C@@H]2O[C@H](CO)[C@@H](O)[C@H](O)[C@H]2O[C@H]2C[C@](C)(N)[C@H](O)[C@H](C)O2)Oc2ccc(cc2Cl)[C@H]1O [Vm, vancomycin]
MIC (13 bacterial strains): 70 µg/mL (≈ 48.3 µM)
change of MIC over 20 generations (S. aureus CMCC26003 [1]): four‐fold increase
reduction in bacterial count within the wound (VRSA 52 [2]; topical 2 mg kg^−1 at 6, 24 and 48 h post‐infection, VRSA 52 1 × 10^8 CFU mL^−1, wound CFU after 3 days): ≈ 30%
pro‐inflammatory cytokines TNF‐α and IL‐6 at the infection site (VRSA 52 [2]; topical 2 mg kg^−1 ×3, ELISA of wound supernatant): didn't effectively decrease
skin wound healing (VRSA 52 [2]; topical 2 mg kg^−1 ×3, observed to day 12): remained unhealed
lung‐colonizing bacteria eliminated [3]: no antibacterial activity
anti‐biofilm activity (inhibition and eradication) [4]: no noticeable anti‐biofilm activity
killing at the bottom of the biofilm [5]: 20%
killing at the surface of the biofilm [5]: 60%
time to complete eradication of all viable bacteria (S. aureus CMCC26003 [6]): > 180 min
time to elimination of all bacteria (E. coli ATCC25922): no bactericidal activity
reduction in the number of persister cells [7]: one‐order reduction
biofilm‐resident bactericidal effect [8]: no significant biofilm‐resident bactericidal effect
MIC (S. aureus CMCC26003 [9]): 0.4 µM and 0.59 µg/mL
MIC (S. aureus ATCC29213): 3.16 µM and 4.69 µg/mL
MIC (MRSA ATCC43300): 3.16 µM and 4.69 µg/mL
MIC (S. aureus 15772): > 67.3 µM and > 100 µg/mL
MIC (S. aureus 15192): 0.4 µM and 0.59 µg/mL
MIC (VRSA 11): > 67.3 µM and > 100 µg/mL
MIC (C. perfringens ATCC13124): 25.2 µM (≈ 36.6 µg/mL)
MIC (E. coli CMCC44102): > 67.3 µM
MIC (A. baumannii ATCC19606): > 67.3 µM and > 100 µg/mL
MIC (MDR A. baumannii 1): > 67.3 µM
MIC (K. pneumoniae 9883): > 67.3 µM and > 100 µg/mL
MIC (MDR K. pneumoniae 3): > 67.3 µM
MIC (P. aeruginosa ATCC27853): > 67.3 µM and > 100 µg/mL
csgA expression relative to control [10]: 0.8
csgD expression relative to control [10]: 0.6
rcsB up‐regulation relative to control [10]: 1.5 fold
bacterial mortality (VRSA 52 [11]): 2%
